This note sets out measurements from ChEMBL document CHEMBL1201862, “PubChem BioAssay data set” (2004).

Experiment [1] in a line: P. falciparum late gametocyte killing, dose response, luminescence (AID 1117278).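 Also: gametocytes exposed to compound for 24 hours.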 The class given is functional, cell-based.
Experiment [2] can be described thus: Jurkat T cell cytotoxicity, dose response, cytotoxicity control for P. falciparum gametocyte viability project, luminescence (AID 1117277).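 Also: potency reflects loss of cellular ATP meaning fewer viable cells.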 The class given is functional, cell-based.
Experiment [3] is described as follows: inhibitors of PGC1a acetylation in cells, dose response, cell-based, cherry-picked samples (AID 720514).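 Also: potency may reflect raised or lowered acetylation signal.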 The experiment is classed as functional.
Experiment [4] is described as follows: HepG2 cell cytotoxicity, dose response, cytotoxicity control, plate reader, cherry-pick, antagonist series (AID 743416). The class given is functional, cell-based.
A short description of experiment [5]: non-specific cell cytotoxicity, dose response, cytotoxicity control for PAX8 inhibitor project, plate reader, dry powder samples (AID 743021). The class given is functional, cell-based.
The nature of experiment [6]: LGR2 antagonists, dose response, cell-based, HEK293, CRE-luciferase reporter, cherry pick, set 2 (AID 743343).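 Also: transfected cells were stimulated with diluted bursicon conditioned medium after compound addition.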 The experiment is classed as functional. For orientation: In a reporter assay the amount or activity of a reporter protein is the signal.
Experiment [7] is described as follows: HEK293 cell cytotoxicity, dose response, cytotoxicity control, plate reader, cherry-picked samples (AID 743446). The experiment is classed as functional, cell-based.
Experiment [8] is described as follows: MC4R antagonists, dose response, counter-screen for LGR2 antagonist project, cell-based, plate reader, cherry pick (AID 743444).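 Also: transfected HEK 293 cells stimulated with alpha-MSH peptide; potency of inhibitors of the alpha-MSH evoked signal.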 The class given is functional. On the technique in general: A counterscreen serves to expose hits that act by an unwanted route or on another target.
The target of another experiment is Paired box protein Pax-8 (Homo sapiens, UniProt Q06710). The experiment can be described thus: inhibitors of PAX8-driven TPO luciferase reporter, dose response, RMG-I cells, cherry-pick (AID 687027).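 Also: luciferase reporter driven by Pax8 target thyroperoxidase promoter measured by SteadyGlo luminescence.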 The experiment is classed as functional, cell-based.
The nature of experiment [9]: A549 cell cytotoxicity, dose response, cytotoxicity control, plate reader, cherry-pick, antagonist series (AID 743412). The class given is functional, cell-based.
A short description of experiment [10]: cytotoxicity toward HCT116 cells – cell-based, CellTiter-Glo luminescence, IC50, dose response (AID 1117332). Particulars: HCT-116. The class given is functional.
A short description of experiment [11]: HCT116 cell viability decrease, GSK3B pretreatment – CellTiter-Glo, IC50, dose response (AID 1117339). The class given is functional. Particulars: HCT-116. (In general: ATP-based viability assays read luminescence as a measure of living cells.)
Experiment [12] in a line: HeLa 4N DNA content increase, dose response, cell-based, IC50 (AID 1117351). The class given is functional.
Experiment [13] is described as follows: CellTiter-Glo luminescent dose response of DLD-1 viability loss (AID 1117352). The experiment is classed as functional.
Experiment [14] in a line: cytotoxicity toward HT-29 cells – cell-based, CellTiter-Glo luminescence, IC50, dose response (AID 1117330). The experiment is classed as functional.
The nature of experiment [15]: cytotoxicity toward Colo320 cells – cell-based, CellTiter-Glo luminescence, IC50, dose response (AID 1117334). The experiment is classed as functional. Particulars: COLO 320.
Experiment [16] in a line: RKO cell viability reduction, dose response, CellTiter-Glo luminescence (AID 1117322). The experiment is classed as functional.
A short description of experiment [17]: HeLa 2N DNA content increase, dose response, cell-based, IC50 (AID 1117349). The experiment is classed as functional.
Experiment [18] in a line: SNU-C1 cell viability reduction, dose response, CellTiter-Glo luminescence (AID 1117323). The experiment is classed as functional, cell-based.
The nature of experiment [19]: Concentration-dependent survival of SW480 colon cancer line, luminescence detection with CellTiter-Glo, half-maximal inhibitory concentration (AID 1117338). The experiment is classed as functional.
Experiment [20] in a line: P. falciparum Dd2 growth inhibitors, dose response, SYBR Green, cherry-picked samples (AID 1159567). The class given is functional, cell-based.
The nature of experiment [21]: HepG2 cell cytotoxicity, dose response, cytotoxicity control, cherry-picked samples (AID 1159577). The experiment is classed as functional, cell-based.
A short description of experiment [22]: P. falciparum ATP4 D1247Y mutant growth inhibitors, dose response, NITD609-resistant line, SYBR Green, dry powder (AID 1159571).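 Also: parasites synchronized at ring stage by sorbitol before testing.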 The experiment is classed as functional, cell-based.
Experiment [23] is described as follows: P. falciparum 3D7-ScDHODH growth inhibitors, dose response, SYBR Green, dry powder samples (AID 1159570).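 Also: parasite growth measured after 72 hours of compound exposure.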 The class given is functional, cell-based.
A short description of experiment [24]: P. falciparum Dd2 growth inhibitors, dose response, SYBR Green, dry powder samples (AID 1159566).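 Also: potency for growth inhibition with lower SYBR green DNA signal.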 The experiment is classed as functional, cell-based.
The nature of experiment [25]: HepG2 cell cytotoxicity, dose response, cytotoxicity control, plate reader, dry powder samples (AID 1159569).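 Also: inhibitor potency with signal falling toward the positive control level.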 The experiment is classed as functional, cell-based.

Calls of active or inactive are those of the source. Where only a bound is given, the exact number is not on record here.

Paired box protein Pax-8, sequence (Q06710 whole entry): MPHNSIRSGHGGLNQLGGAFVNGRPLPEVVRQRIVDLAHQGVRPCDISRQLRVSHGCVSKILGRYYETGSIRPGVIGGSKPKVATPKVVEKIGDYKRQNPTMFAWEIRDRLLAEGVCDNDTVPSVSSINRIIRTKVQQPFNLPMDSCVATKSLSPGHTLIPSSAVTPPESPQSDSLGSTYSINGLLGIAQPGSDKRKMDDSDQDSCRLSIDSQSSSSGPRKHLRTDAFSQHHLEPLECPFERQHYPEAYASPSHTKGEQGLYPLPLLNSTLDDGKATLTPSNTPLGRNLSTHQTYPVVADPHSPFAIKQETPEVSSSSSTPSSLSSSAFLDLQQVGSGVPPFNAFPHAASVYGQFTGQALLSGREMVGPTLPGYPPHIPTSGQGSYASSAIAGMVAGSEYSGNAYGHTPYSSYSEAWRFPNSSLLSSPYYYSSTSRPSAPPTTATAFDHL

As usually defined, the IC50 is the midpoint of a concentration-inhibition curve. Consider `Cn1c(CCNC(=O)C2CCCCC2)nc2cc(NC(=O)c3cccs3)ccc21`, for which the IC50 was > 109 µM (inactive) in experiment [1] and > 83.3 µM (inactive) in experiment [2].

As usually defined, the AC50 is the midpoint of the concentration-response curve, whichever way the signal moves. Turning to `Cc1nc(O)c(C(=O)/C=C/c2ccccc2)c2c1CCCC2`, the AC50 in experiment [3] is 8.12 µM (active).

`COc1ccc(-n2nnnc2C(CCc2ccccc2)N2CCC(n3c(O)nc4ccccc43)CC2)cc1` (centres undefined): the AC50 in experiment [4] was > 52 µM (inactive); in experiment [5], 24.5 µM (active); in [6] it was 11.3 µM (active); in [7] it was 10.1 µM (active); in experiment [8], 9.43 µM (active); in experiment [3] it was 21.4 µM (active). Also, the figures for the AC50 (on Paired box protein Pax-8; in experiment [9]) were 7.54 µM (active) and 14.7 µM (active), respectively.

Consider `CN1CCC(Nc2ncc3ncnc(Nc4ccc(F)c(Cl)c4)c3n2)CC1`, for which the IC50 in experiment [10] is > 20 µM (inactive); in experiment [11], 3.38 µM (active); in experiment [12] it was > 10 µM (inactive); in experiment [13] it was 2.29 µM (active); in experiment [14], 4 µM (active); in experiment [15] it was 11.7 µM (inactive). Moreover, the half-maximal inhibitory concentration (IC50) in [16] is 3.17 µM (active); in [17], > 10 µM (inactive); in [18] it was 12 µM (inactive); in experiment [19] it was 2.35 µM (active).

As to `COc1ccccc1CN1C[C@@H]2N[C@H](C1)[C@@H]2c1ccc(-c2ccccc2OC)cc1`, the half-maximal activity concentration (AC50) was 4.29 µM (active) in experiment [20] and 11.6 µM (active) in experiment [21].

On to `C[C@@H]1CN([C@@H](C)CO)C(=O)c2cccc(NC(=O)c3nc4ccccc4s3)c2O[C@@H]1CN(C)C(=O)Nc1cccc2ccccc12`, for which the concentration at half-maximal activity (AC50) is 2 µM (active) in [22]; 2.98 µM (active) in experiment [20]; 2.73 µM (active) in experiment [23]; 2.51 µM (active) in experiment [24]; 71.7 µM (active) in [25].

For the compound `O=C(c1ccc2c(c1)OCO2)N1CC(=O)N2[C@H](CO)[C@H](c3ccc(C#Cc4ccccc4)cc3)[C@H]2C1`, the half-maximal activity concentration (AC50) in experiment [22] is 1.93 µM (active); in experiment [20], 2.52 µM (active); in [23], 5.73 µM (active); in experiment [24], 1.68 µM (active); in experiment [25], 25 µM (active); in experiment [21], 26.3 µM (active).

In the case of `O=C(O)c1ccc(-n2nc(-c3ccccc3O)nc2-c2ccccc2O)cc1` [DEFERASIROX], the IC50 in experiment [10] was 0.438 µM (active); in experiment [11], 0.242 µM (active); in experiment [12] it was > 10 µM (inactive); in experiment [13], 0.651 µM (active); in [14] it was 0.516 µM (active); in [15], 0.409 µM (active). The half-inhibitory concentration (IC50) in [16] was 0.1 µM (active); in experiment [17] it was > 10 µM (inactive); in [18], 0.233 µM (active); in experiment [19] it was 0.0776 µM (active).
